Data from patent US10106534B2 (CELGENE QUANTICEL RESEARCH, INC., priority 2014, dated 2018).

What was measured:
[1] = test system: KYSE-150 esophageal carcinoma cell line; experiment: In vitro cell-based assay: cellular proliferation via BrdU incorporation (ELISA); set-up: species or system human; conditions: Homo sapiens, KYSE-150, 168 hours compound incubation
How it was run: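 KYSE-150 cells (JMJD2C-amplified; SMAD4 and TP53 mutant), 2,000/well, were treated after overnight attachment with an 11-point series (100 μM to 2 nM) for 168 h. Proliferation was read by BrdU ELISA (2 h labelling, anti-BrdU-peroxidase, TMB, 450 nm) and IC50 fitted.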

[2] = biological target: JMJD2C (Homo sapiens (Human), UniProt Q9H3R0); experiment: In vitro enzyme inhibition assay for JMJD2C activity (TR-FRET); type: biochemical
JMJD2C, sequence (Q9H3R0 2-372): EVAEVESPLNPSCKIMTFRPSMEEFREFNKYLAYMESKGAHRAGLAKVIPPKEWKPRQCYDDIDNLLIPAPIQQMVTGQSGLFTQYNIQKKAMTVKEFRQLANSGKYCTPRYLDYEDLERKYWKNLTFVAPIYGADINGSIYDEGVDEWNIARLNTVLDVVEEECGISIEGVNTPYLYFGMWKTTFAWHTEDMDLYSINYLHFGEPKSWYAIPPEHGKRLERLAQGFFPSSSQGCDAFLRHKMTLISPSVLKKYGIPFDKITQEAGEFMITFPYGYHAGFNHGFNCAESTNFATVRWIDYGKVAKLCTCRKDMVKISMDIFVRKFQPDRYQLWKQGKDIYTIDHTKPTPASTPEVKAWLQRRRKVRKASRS
How it was run: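 Baculovirus JMJD2C (AA 2-372), 0.3 nM, with 300 nM biotin-H3K9me3 peptide and 2 μM α-ketoglutarate in HEPES pH 7.3 containing Fe(II) and ascorbate, 30 min at room temperature, 11-point dilutions. H3K9me2 product by TR-FRET (Eu-antibody/streptavidin-APC, 665/615 ratio); IC50 fitted.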

SMILES | IC50 [1] [nM] | IC50 [2] [nM]
CN(c1ccc2c(c1)CCC[C@H]2CNc1cnccc1C(=O)O)c1ccn(C)n1 [Example 125, 3-({[(1R)-6-[methyl(1-methyl-1H-pyrazol-3-yl)amino]-1,2,3,4-tetrahydronaphthalen-1-yl]methyl}amino)pyridine-4-carboxylic acid] | 100 to 1000 | 100 to 1000
CN(c1ccc2c(c1)COC2)c1ccc2c(c1)OCC[C@H]2CNc1cnccc1C(=O)O [Example 127, 3-({[(4R)-7-[(1,3-dihydro-2-benzofuran-5-yl)(methyl)amino]-3,4-dihydro-2H-1-benzopyran-4-yl]methyl}amino)pyridine-4-carboxylic acid] | 100 to 1000 | 100 to 1000
CN(c1ccc2c(c1)OCC[C@H]2CNc1cnccc1C(=O)O)c1ccc2ccoc2c1 [Example 141, 3-({[(4R)-7-[(1-benzofuran-6-yl)(methyl)amino]-3,4-dihydro-2H-1-benzopyran-4-yl]methyl}amino)pyridine-4-carboxylic acid] | 100 to 1000 | 100 to 1000
O=C(O)c1ccncc1NCC1OCCc2ccccc21 (stereo not shown) [Example 142, 3-[(3,4-dihydro-1H-2-benzopyran-1-ylmethyl)amino]pyridine-4-carboxylic acid] | > 10000 | 100 to 1000
O=C(O)c1ccncc1NC[C@@H]1CCCc2cc(N(CCO)c3ccccc3)ccc21 [Example 147, 3-({[(1R)-6-[(2-hydroxyethyl)(phenyl)amino]-1,2,3,4-tetrahydronaphthalen-1-yl]methyl}amino)pyridine-4-carboxylic acid] | 100 to 1000 | 100 to 1000
Cc1cccc(N(C)c2ccc3c(c2)OCC[C@H]3CNc2cnccc2C(=O)O)n1 [Example 148, 3-({[(4R)-7-[methyl(6-methylpyridin-2-yl)amino]-3,4-dihydro-2H-1-benzopyran-4-yl]methyl}amino)pyridine-4-carboxylic acid] | 100 to 1000 | 100 to 1000
CN(c1ccc2c(c1)OCC[C@H]2CNc1cnccc1C(=O)O)c1ccc(Cl)cn1 [Example 152, 3-({[(4R)-7-[(5-chloropyridin-2-yl)(methyl)amino]-3,4-dihydro-2H-1-benzopyran-4-yl]methyl}amino)pyridine-4-carboxylic acid] | 100 to 1000 | 100 to 1000
CN(c1ccc2c(c1)CCC[C@H]2CNc1cnccc1C(=O)O)c1ccn(C)c(=O)c1 [Example 155, 3-({[(1R)-6-[methyl(1-methyl-2-oxo-1,2-dihydropyridin-4-yl)amino]-1,2,3,4-tetrahydronaphthalen-1-yl]methyl}amino)pyridine-4-carboxylic acid] | > 10000 | 100 to 1000
CN(c1ccc(CO)cc1)c1ccc2c(c1)CCC[C@H]2CNc1cnccc1C(=O)O [Example 158, 3-({[(1R)-6-{[4-(hydroxymethyl)phenyl](methyl)amino}-1,2,3,4-tetrahydronaphthalen-1-yl]methyl}amino)pyridine-4-carboxylic acid] | 100 to 1000 | 100 to 1000
Cc1cc(N(C)c2ccc3c(c2)CCC[C@H]3CNc2cnccc2C(=O)O)no1 [Example 171, 3-({[(1R)-6-[methyl(5-methyl-1,2-oxazol-3-yl)amino]-1,2,3,4-tetrahydronaphthalen-1-yl]methyl}amino)pyridine-4-carboxylic acid] | > 10000 | 1000 to 10000
COc1ccccc1N(C)c1ccc2c(c1)CCC[C@H]2CNc1cnccc1C(=O)O [Example 172, 3-({[(1R)-6-[(2-methoxyphenyl)(methyl)amino]-1,2,3,4-tetrahydronaphthalen-1-yl]methyl}amino)pyridine-4-carboxylic acid] | 100 to 1000 | 100 to 1000
CN(c1ccncc1)c1ccc2c(c1)CCC[C@H]2CNc1cnccc1C(=O)O [Example 173, 3-({[(1R)-6-[methyl(pyridin-4-yl)amino]-1,2,3,4-tetrahydronaphthalen-1-yl]methyl}amino)pyridine-4-carboxylic acid] | > 10000 | ≤ 100
CN(c1ccc(C2CCOCC2)cc1)c1ccc2c(c1)CCC[C@H]2CNc1cnccc1C(=O)O [Example 175, 3-({[(1R)-6-{methyl[4-(oxan-4-yl)phenyl]amino}-1,2,3,4-tetrahydronaphthalen-1-yl]methyl}amino)pyridine-4-carboxylic acid] | ≤ 100 | 1000 to 10000
C=Cc1ccc(N(C)c2ccc3c(c2)OCC[C@H]3CNc2cnccc2C(=O)O)cc1 [Example 176, 3-({[(4R)-7-[(4-ethenylphenyl)(methyl)amino]-3,4-dihydro-2H-1-benzopyran-4-yl]methyl}amino)pyridine-4-carboxylic acid] | ≤ 100 | 100 to 1000
COc1ccc(N(C)c2ccc3c(c2)CCC[C@H]3CNc2cnccc2C(=O)O)cc1 [Example 177, 3-({[(1R)-6-[(4-methoxyphenyl)(methyl)amino]-1,2,3,4-tetrahydronaphthalen-1-yl]methyl}amino)pyridine-4-carboxylic acid] | ≤ 100 | 100 to 1000
COc1ccc(N(C)c2ccc3c(c2)OCC[C@H]3CNc2cnccc2C(=O)O)cc1 [Example 178, 3-({[(4R)-7-[(4-methoxyphenyl)(methyl)amino]-3,4-dihydro-2H-1-benzopyran-4-yl]methyl}amino)pyridine-4-carboxylic acid] | ≤ 100 | ≤ 100
CN(c1ccc(N2CCCC2)cc1)c1ccc2c(c1)OCC[C@H]2CNc1cnccc1C(=O)O [Example 179, 3-({[(4R)-7-{methyl[4-(pyrrolidin-1-yl)phenyl]amino}-3,4-dihydro-2H-1-benzopyran-4-yl]methyl}amino)pyridine-4-carboxylic acid] | ≤ 100 | 100 to 1000

Continued, values first:

IC50 [1] [nM] | IC50 [2] [nM] | SMILES
≤ 100 | 100 to 1000 | CN(c1ccc2c(c1)CCC2)c1ccc2c(c1)OCC[C@H]2CNc1cnccc1C(=O)O [Example 131, 3-({[(4R)-7-[(2,3-dihydro-1H-inden-5-yl)(methyl)amino]-3,4-dihydro-2H-1-benzopyran-4-yl]methyl}amino)pyridine-4-carboxylic acid]
≤ 100 | 100 to 1000 | CN(c1ccc2c(c1)COC2)c1ccc2c(c1)CCC[C@H]2CNc1cnccc1C(=O)O [Example 132, 3-({[(1R)-6-[(1,3-dihydro-2-benzofuran-5-yl)(methyl)amino]-1,2,3,4-tetrahydronaphthalen-1-yl]methyl}amino)pyridine-4-carboxylic acid]
≤ 100 | 100 to 1000 | CN(c1ccc2c(c1)CCC[C@H]2CNc1cnccc1C(=O)O)c1ccc2ccoc2c1 [Example 135, 3-({[(1R)-6-[(1-benzofuran-6-yl)(methyl)amino]-1,2,3,4-tetrahydronaphthalen-1-yl]methyl}amino)pyridine-4-carboxylic acid]
≤ 100 | 100 to 1000 | CN(c1ccc2c(c1)OCC[C@H]2CNc1cnccc1C(=O)O)c1ccc2occc2c1 [Example 136, 3-({[(4R)-7-[(1-benzofuran-5-yl)(methyl)amino]-3,4-dihydro-2H-1-benzopyran-4-yl]methyl}amino)pyridine-4-carboxylic acid]
≤ 100 | 100 to 1000 | CN(c1ccc2c(c1)CCC[C@H]2CNc1cnccc1C(=O)O)c1cccs1 [Example 144, 3-({[(1R)-6-[methyl(thiophen-2-yl)amino]-1,2,3,4-tetrahydronaphthalen-1-yl]methyl}amino)pyridine-4-carboxylic acid]
≤ 100 | 100 to 1000 | CN(c1ccccc1)c1ccc2c(c1)CCOC2CNc1cnccc1C(=O)O (stereo not shown) [Example 146, 3-[({6-[methyl(phenyl)amino]-3,4-dihydro-1H-2-benzopyran-1-yl}methyl)amino]pyridine-4-carboxylic acid]
≤ 100 | 100 to 1000 | COc1cccc(N(C)c2ccc3c(c2)CCC[C@H]3CNc2cnccc2C(=O)O)c1 [Example 150, 3-({[(1R)-6-[(3-methoxyphenyl)(methyl)amino]-1,2,3,4-tetrahydronaphthalen-1-yl]methyl}amino)pyridine-4-carboxylic acid]
≤ 100 | 100 to 1000 | Cc1ccc(N(C)c2ccc3c(c2)OCC[C@H]3CNc2cnccc2C(=O)O)cc1F [Example 151, 3-({[(4R)-7-[(3-fluoro-4-methylphenyl)(methyl)amino]-3,4-dihydro-2H-1-benzopyran-4-yl]methyl}amino)pyridine-4-carboxylic acid]
≤ 100 | 1000 to 10000 | CN(c1ccc(C2CC2)cc1)c1ccc2c(c1)CCC[C@H]2CNc1cnccc1C(=O)O [Example 161, 3-({[(1R)-6-[(4-cyclopropylphenyl)(methyl)amino]-1,2,3,4-tetrahydronaphthalen-1-yl]methyl}amino)pyridine-4-carboxylic acid]
≤ 100 | 1000 to 10000 | COCCN(c1ccc(C2CC2)cc1)c1ccc2c(c1)CCC[C@H]2CNc1cnccc1C(=O)O [Example 163, 3-({[(1R)-6-[(4-cyclopropylphenyl)(2-methoxyethyl)amino]-1,2,3,4-tetrahydronaphthalen-1-yl]methyl}amino)pyridine-4-carboxylic acid]
≤ 100 | 100 to 1000 | CN(c1ccc(N2CCCC2)cc1)c1ccc2c(c1)CCC[C@H]2CNc1cnccc1C(=O)O [Example 167, 3-({[(1R)-6-{methyl[4-(pyrrolidin-1-yl)phenyl]amino}-1,2,3,4-tetrahydronaphthalen-1-yl]methyl}amino)pyridine-4-carboxylic acid]
≤ 100 | 1000 to 10000 | CN(c1ccc(C2=CCOCC2)cc1)c1ccc2c(c1)CCC[C@H]2CNc1cnccc1C(=O)O [Example 174, 3-({[(1R)-6-{[4-(3,6-dihydro-2H-pyran-4-yl)phenyl](methyl)amino}-1,2,3,4-tetrahydronaphthalen-1-yl]methyl}amino)pyridine-4-carboxylic acid]
